Source: patent US20100278730A1, “Non-Invasive Molecular Imaging of Cellular Histone Deacetylase Substrate Using Magnetic Resonance Spectroscopy (MRS) or Positron Emission Tomography (PET)” (priority 2007, published 2010)

Experiments:
[1] = test system: HDACs 1-11; test: HDAC fluorimetric assay; format: biochemical; settings: for histone deacetylase activity in the presence of the substrate: FIG. 21, BPS#3 as control
Experimental: Material: Assay buffer, Assay developer, HDAC substrate
(§1) Source: BPS Bioscience, Inc.
Add reaction mixtures to low binding black plate. These include: HDAC assay buffer, Bovine serum albumin solution, HDAC substrate, and HDAC enzymes.
Incubate at 37° C. for 30 minutes.
(§2) Stop the reaction by addition of HDAC Assay developer (2×) and incubate plate at room temperature for 15 minutes.
(§3) Read sample in a microtiter-plate reading fluorimeter at excitation wavelength in the range of 350-380 nm and detect in emission range of 440-460 nm.

[2] = test system: sirtuins 1-5; test: Sirtuin fluorimetric assay; format: biochemical
Experimental: Sirtuin Fluorimetric Assay
Material: substrate available from manufacturer
as §1
Add reaction mixtures to low binding black plate. These include: Sirtuin, HDAC assay buffer, Bovine serum albumin solution, NAD+ solution and Sirtuin substrate.
Incubate at 37° C. for 30 minutes
as §2, §3

[3] = test system: HDAC activity in rat brain; test: PET imaging of HDAC activity in rat brain using [18F]-FAHA (Example 6); format: in vivo
Experimental: Methods: [^18F]-FAHA was synthesized according to the methods developed in our laboratory in high specific activity. Imaging studies with [^18F]-FAHA were conducted in five rats using a PET scanner under isoflurane inhalation anesthesia. The animals were injected intravenously with 37 MBq of [^18F]-FAHA and dynamic scanning PET (0-60 min) was performed. During the imaging session, the rats were anesthetized with 1-1.5 vol % isoflurane/oxygen inhalation and continuously heated with a heating lamp. Two days after the initial study, another PET imaging was performed with [^18F]-FAHA using an […] (SAHA). Each animal was given SAHA (50 mg/kg), intraperitoneally 1 hour prior to injection of the [^18F]-FAHA.
In Table 6, “baseline” refers to brain uptake of FAHA without blocking by SAHA.

[4] = test system: MB435 human breast carcinoma tumor; test: PET of [18F]-FAHA in MB435 carcinoma-bearing nu/nu rats, with Gjedde-Patlak analysis (Example 5); format: in vivo, rat
Experimental: MB435 human breast carcinoma cells were grown as described in Example 3, above. About 10×10^6 MB435 cells were injected subcutaneously in female nu/nu rat. When tumor size was 15 mm in diameter, PET imaging studies with [^18F]-FAHA were conducted in five rats using microPET R4 (Concorde). The animals were injected intravenously with […] (1mCi) of [^18F]-FAHA and dynamic scanning (0-60 min) was performed. During the imaging session the rats were anesthetized with 2.0 vol % isoflurane/oxygen inhalation and continuously heated with a heating lamp.
Two days after the initial study, another [^18F]-FAHA PET imaging with an […] (SAHA) was performed. The animals were given SAHA (100 mg/kg) intraperitoneally 1 hour prior to injection of the [^18F]-FAHA.
Both a Gjedde-Patlak plot and a Logan plot were taken. […] The linearity of the plot was checked and a plasma/reference region used as an input. […]

[5] = test system: MDA-MB435 human breast carcinoma cells; test: In vitro uptake study of [18F]-FAHA in human breast carcinoma cell line; format: cell-based
Experimental: MDA-MB435 human breast carcinoma cells were grown into flasks with D-MEM/F-12 medium supplemented with 10% FBS and antibiotics at 37° C. in humidified atmosphere with 5% CO2. Cells were kept in the log phase proliferative activity. 5×10^6 of cells in 15 mL of medium were distributed into each tissue culture dish and were incubated at least for 24 hours.
Next day, culture medium was replaced to fresh medium again and was incubated for 3 hours. Then […] of [^18F]-FAHA in […] of saline was added to each dish followed by incubation for 5, 10, 15, 30, 60, and 120 min. At each time point, cells were scraped and were centrifuged at 3,000 rpm for 1 min. After centrifugation, […] of supernatant medium and cells were weighed and their radioactivity measured using a gamma counter. Then the ratio of radioactivity between 1 gram of cells and 1 gram of medium was calculated.
For an inhibition study, cells were incubated in medium with […] of SAHA from 1 hour before adding [^18F]-FAHA.

[6] = test system: MB435 tumor xenografts; test: PET of [18F]-FAHA in MB435 tumor xenograft-bearing nude rats (second Example 4); format: in vivo, rat
Experimental: Methods: [^18F]-FAHA was synthesized with high specific activity according to a method developed at M. D. Anderson Cancer Center. Human breast cancer cells, cell line MB435, grown as described in Example 3, were used to grow tumor xenografts in nude rats. Ten million cancer cells were injected subcutaneously in the neck area of six nude rats. When tumors were 1 cm in diameter, animals were anesthetized, injected with [^18F]-FAHA (37 MBq) and PET imaging was performed (dynamic) up to 60 min post-injection. Two days after the initial imaging, another PET imaging with [^18F]-FAHA was performed using a […] (SAHA). The animals were given SAHA (50 mg/kg) intraperitoneally 1 hour prior to injection of the radiotracer.

[7] = 5 min post-injection, without SAHA
[8] = 60 min post-injection, with SAHA 50 mg/kg i.p. 1 hour prior
[9] = 60 min post-injection, without SAHA
[10] = 30 min post-injection, with SAHA 50 mg/kg i.p. 1 hour prior
[11] = 30 min post-injection, without SAHA
[12] = during 60 min post-injection, without SAHA

## O=C(Cc1ccccc1)NCCCCCC(=O)Nc1ccccc1 [PhAHA, 6-(phenylacetamido)-1-hexanoicanilide]
[1]
  histone deacetylase activity in the presence of the substrate: inhibited the activity of all HDACs
[2]
  qualitative rank of the specificity of various sirtuins (and HDAC-3) for the substrate: Sirt-2 >>Sirt-3>Sirt-4>Sirt-5>Sirt-1

## CC(C)CC(=O)NCCCCCC(=O)Nc1ccccc1 [Iso-PAHA, 6-(isopropylacetamido)-1-hexanoicanilide]
[1]
  histone deacetylase activity in the presence of the substrate: inhibited the activity of all HDACs
[2]
  qualitative rank of the specificity of various sirtuins (and HDAC-3) for the substrate: Sirt-2>Sirt-5>Sirt-4>Sirt-3>Sirt-1

## CCCC(=O)NCCCCCC(=O)Nc1ccccc1 [PAHA, 6-(ethylacetamido)-1-hexanoicanilide]
[1]
  histone deacetylase activity in the presence of the substrate: inhibited the activity of all HDACs
[2]
  qualitative rank of the specificity of various sirtuins (and HDAC-3) for the substrate: Sirt-2>Sirt-5>Sirt-4>Sirt-3>Sirt-1 >>HDAC-3

## O=C(C[18F])NCCCCCC(=O)Nc1ccccc1 [[^18F]-FAHA, 6-([^18F]-fluoroacetamide)-1-hexanoicanilide]
[3]; 5 min post-injection, with SAHA 50 mg/kg i.p. 1 hour prior
  Brain uptake: 0.33 ± 0.05 % ID/g
[3]; [7]
  Brain uptake: 0.44 ± 0.03 % ID/g
  brain-to-muscle (B/M) ratio: 2.56 ± 0.33
[3]; [8]
  Brain uptake: 0.23 ± 0.04 % ID/g
  brain-to-muscle (B/M) ratio: 1.03 ± 0.08
[3]; [9]
  Brain uptake: 0.40 ± 0.03 % ID/g
  brain-to-muscle (B/M) ratio: 2.10 ± 0.63
[3]; at 5 min post-injection, without SAHA
  brain-to muscle ratio reached: 1.95
[3]; without SAHA
  brain uptake reached: 0.44 % injected dose/g
[4]; Baseline, 5 min
  Tumor-to-muscle uptake ratio: 2.01 +/− 0.57
[4]; Baseline, 10 min
  Tumor-to-muscle uptake ratio: 2.05 +/− 0.76
[4]; Baseline, 15 min
  Tumor-to-muscle uptake ratio: 2.08 +/− 0.83
[4]; Baseline, 30 min
  Tumor-to-muscle uptake ratio: 2.20 +/− 0.95
[4]; Baseline, 60 min
  Tumor-to-muscle uptake ratio: 2.38 +/− 1.11
[4]; Inhibition: SAHA 100 mg/kg i.p. 1 hour prior, 5 min
  Tumor-to-muscle uptake ratio: 1.43 +/− 0.15
[4]; Inhibition: SAHA 100 mg/kg i.p. 1 hour prior, 10 min
  Tumor-to-muscle uptake ratio: 1.50 +/− 0.15
[4]; Inhibition: SAHA 100 mg/kg i.p. 1 hour prior, 15 min
  Tumor-to-muscle uptake ratio: 1.46 +/− 0.16
[4]; Inhibition: SAHA 100 mg/kg i.p. 1 hour prior, 30 min
  Tumor-to-muscle uptake ratio: 1.47 +/− 0.12
[4]; Inhibition: SAHA 100 mg/kg i.p. 1 hour prior, 60 min
  Tumor-to-muscle uptake ratio: 1.47 +/− 0.11
[5]; Baseline, 5 min
  ratio of radioactivity between 1 gram of cells and 1 gram of medium: 1.95 +/− 0.13
[5]; Baseline, 10 min
  ratio of radioactivity between 1 gram of cells and 1 gram of medium: 2.09 +/− 0.15
[5]; Baseline, 15 min
  ratio of radioactivity between 1 gram of cells and 1 gram of medium: 2.11 +/− 0.12
[5]; Baseline, 30 min
  ratio of radioactivity between 1 gram of cells and 1 gram of medium: 2.02 +/− 0.11
[5]; Baseline, 60 min
  ratio of radioactivity between 1 gram of cells and 1 gram of medium: 1.84 +/− 0.14
[5]; Baseline, 120 min
  ratio of radioactivity between 1 gram of cells and 1 gram of medium: 1.38 +/− 0.12
[5]; Inhibition: 10 mM of SAHA from 1 hour before [18F]-FAHA, 5 min
  ratio of radioactivity between 1 gram of cells and 1 gram of medium: 1.16 +/− 0.03
[5]; Inhibition: 10 mM of SAHA from 1 hour before [18F]-FAHA, 10 min
  ratio of radioactivity between 1 gram of cells and 1 gram of medium: 1.16 +/− 0.01
[5]; Inhibition: 10 mM of SAHA from 1 hour before [18F]-FAHA, 15 min
  ratio of radioactivity between 1 gram of cells and 1 gram of medium: 1.16 +/− 0.03
[5]; Inhibition: 10 mM of SAHA from 1 hour before [18F]-FAHA, 30 min
  ratio of radioactivity between 1 gram of cells and 1 gram of medium: 1.16 +/− 0.04
[5]; Inhibition: 10 mM of SAHA from 1 hour before [18F]-FAHA, 60 min
  ratio of radioactivity between 1 gram of cells and 1 gram of medium: 1.15 +/− 0.01
[5]; Inhibition: 10 mM of SAHA from 1 hour before [18F]-FAHA, 120 min
  ratio of radioactivity between 1 gram of cells and 1 gram of medium: 1.13 +/− 0.02
[6]; [10]
  Tumor uptake: 0.70 ± 0.04 % ID/g
  tumor-to-muscle (T/M) ratio: 1.52 ± 0.13
[6]; [11]
  Tumor uptake: 0.78 ± 0.13 % ID/g
  tumor-to-muscle (T/M) ratio: 1.80 ± 0.17
[6]; [8]
  Tumor uptake: 0.71 ± 0.02 % ID/g
  tumor-to-muscle (T/M) ratio: 1.64 ± 0.10
[6]; [9]
  Tumor uptake: 0.79 ± 0.13 % ID/g
  tumor-to-muscle (T/M) ratio: 1.95 ± 0.19
[6]; [12]
  tumor uptake achieved: approximately 0.8 % injected dose (ID)/g
  tumor-to muscle ratio reached: 1.95

## O=C(CCCCCNC(=O)C(F)(F)F)Nc1ccccc1 [3FAHA, 6-(trifluoroacetamido)-1-hexanoicanilide]
[1]
  qualitative rank of the specificity of various HDACs for the substrate: HDAC-9>HDAC-7>HDAC-5>HDAC-8>HDAC-4>HDAC-11

## O=C(CF)NCCCCCC(=O)Nc1ccccc1 [FAHA, 6-(fluoroacetamido)-1-hexanoicanilide]
[1]
  qualitative rank of the specificity of various HDACs for the substrate: HDAC-9>HDAC-5>HDAC-8>HDAC-4>HDAC-6>HDAC-1
